Assay results reported in patent US5831001A, “Treatment of herpesvirus infection” (priority 1995, dated 1998).

Columns and labels:
HSV = experiment: plaque reduction assay, inhibition of HSV replication; format: cell-based; conditions: for Virus titer: pretreated Veto cell monolayers, plaques counted after 2 to 3 days
Method: Selected compounds were first formulated as 10 mM stocks in water for in vitro and call culture procedures. Then stocks are then diluted into buffers used for specific assays, or into cell culture media. For animal studies peptides are diluted into phosphate buffer saline,
The following procedures were then used to determine inhibitory effects of compounds on the replication of HSV. First, confluent monolayers of Veto cells (continuous passage cell line derived from African Green Monkeys) in 24 well cell culture plates were treated with specified concentrations of peptide for 25 hours. This was accomplished by diluting the stock peptide solution in growth medium used to overlay the monolayers, i.e. growth medium containing 10% fetal bovine serum and 10 ug/ml gentamicin in Dulbecco's MEM (DMEM).
Virus was then allowed to adsorb for 1 hour at 37° C. The virus inoculum was removed and the monolayers are overlayed with DMEM containing 2% FBS, 10 ug/ml gentamicin and specified concentration of peptide. Virus was next allowed to replicate for 2 to 3 days until the plaques were judged to be well developed, and then the monolayers were fixed and stained with a solution of 1% crystal violet in 1% formaldehyde, 70% ethanol. Finally, plaques (each representing a single viable virion) were counted and checked microscopically.

CC(=O)N[C@H](CCCNC(=N)N)C(=O)N[C@H](CCCNC(=N)N)C(=O)N[C@H](CCCNC(=N)N)C(=O)N[C@H](CCCNC(=N)N)C(=O)N[C@H](CCCNC(=N)N)C(=O)N[C@H](CCCNC(=N)N)C(=O)N[C@H](CCCNC(=N)N)C(=O)N[C@H](CCCNC(=N)N)C(=O)N[C@H](CCCNC(=N)N)C(N)=O [compound 4C, acetyl-[D-Arg]9 -NH2]
inhibition of viral replication (HSV; at the concentration tested (5uM)): ≥ 95% | Virus titer (HSV; peptide concentration 0.5 uM): 30,000 pfu/ml | Virus titer (HSV; peptide concentration 5.0 uM): 11,000 pfu/ml | inhibition of host cell replication (Veto cells): no apparent inhibition
